Test system: lincosamides universal monoclonal antibody secreted by monoclonal cell strain CGMCC No. 14691
Assay: indirect competitive ELISA with coating antigen Lin-OVA
Format: binding, BALB/c mice
Conditions: lincosamides standard substances competing with coating antigen Lin-OVA
Description: The specific ELISA procedure was as follows:
Coating: the coating antigen was subjected to gradient dilution with a 0.05 M pH 9.6 carbonate buffer solution, and incubated at 37° C. for 2 h at 100 μL/well.
Washing: a solution in a plate was decanted, and 200 μL of a PBST solution was injected into each well, placed on a shaker to shake for 3 min, spin-dried, and washed 3 times. The following washing method was the same.
Blocking: After patting dry, 200 μL of a blocking buffer was added to each well, and incubated at a temperature of 37° C. for 2 h. After washing, the product was dried to be ready for use.
Color development: the ELISA plate was taken out, and fully washed, and then 100 μL of a color developing solution (the ratio of TMB to a substrate liquid is 1:5) was added to each well to react at a temperature of 37° C. for 15 min in the dark.
Stopping and determination: the ELISA plate was taken out, 50 μL of a stop solution (2 mol/L sulfuric acid) was added to each well to stop the reaction, and then the absorbance A450 of each well was determined by an ELISA reader.

| Compound | half inhibition concentration (IC50) of the monoclonal antibody [µg/mL] |
| --- | --- |
| CCC[C@@H]1C[C@@H](C(=O)N[C@@H]([C@H]2O[C@H](SC)[C@H](O)[C@@H](O)[C@H]2O)[C@@H](C)O)N(C)C1 [lincomycin] | 0.004339 |
| CC[C@@H]1CCN[C@H](C(=O)N[C@@H]([C@H]2O[C@H](SC)[C@H](O)[C@@H](O)[C@H]2O)[C@H](C)Cl)C1 [pirlimycin] | 0.019314 |
